Reference: the supplement of paper PMC8837787

tested on: Saccharomyces cerevisiae ABC16-Green Monster; experiment: growth inhibition at single dose (up to 150 µM), below the 70% cut-off for dose-response; higher = more potent; details: 18 h; 30 °C; YPD
Procedure, shortened: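 Values are percent growth inhibition of drug-sensitive S. cerevisiae ABC16-Green Monster cells. Cells grown overnight in YPD at 30 °C were diluted to log phase (OD600 0.1–0.2), and each library compound was added at a single dose of 150 µM to 200 µl culture per well in 96-well plates, in biological duplicates, beside untreated cultures. OD600 was read at 0 h and after 18 h at 30 °C, and compounds under 70% in both replicates were not taken to dose-response.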

Row | Compound | growth inhibition at single dose
1 | CCc1c(C)nc(-n2nc(C)cc2NC(=O)c2ccccc2SC)[nH]c1=O | < 70%
2 | Cc1ccc(C(NCC(=O)Nc2sccc2C(N)=O)c2cccs2)cc1 (stereo unspecified) | < 70%
3 | Cc1cc(C(=O)COC(=O)c2[nH]nc3ccccc23)c(C)n1CC1CCCO1 (stereo unspecified) | < 70%
4 | COC(=O)c1ccc(CNC(=O)NCCN2c3ccccc3CCC2C)cc1 (stereo unspecified) | < 70%
5 | Cn1c(N)c(C(=O)COC(=O)C2(c3ccc(Cl)cc3)CCCC2)c(=O)n(C)c1=O | < 70%
6 | Cc1cccc2c(=O)n(CC(=O)NCc3ccc(C(=O)N4CCCCC4)cc3)cnc12 | < 70%
7 | COCC(C)n1c(C)cc(C(=O)CSc2ccc(NC(C)=O)cc2)c1C (stereo unspecified) | < 70%
8 | N#Cc1ccc(-c2cnc(N)c(-c3ccc(C(N)=O)cc3)n2)cc1 | < 70%
9 | O=C(CCl)NCCOc1ccc(Cl)cc1Cl | < 70%
10 | CC(=O)NC[C@@H]1CN(c2ccc(N3CCOCC3)c(F)c2)C(=O)O1 | < 70%
11 | Cc1cccc(C2CC(=O)c3cnn(-c4nc(C)cc(C)n4)c3C2)c1 (stereo unspecified) | < 70%
12 | O=C(NC1CC1)c1ccc(CN(C2CC2)S(=O)(=O)c2ccccc2F)cc1 | < 70%
13 | COc1nc2ccc(Br)cc2cc1[C@@H](c1ccccc1)[C@@](O)(CCN(C)C)c1cccc2ccccc12 | < 70%
14 | CC(c1ccc(-c2ccccc2)c(F)c1)c1nn2c(-c3ccco3)nnc2s1 (stereo unspecified) | < 70%
15 | CCC(C)NCC(O)(c1ccc(Cl)cc1)c1ccc(Cl)cc1 (stereo unspecified) | < 70%
16 | c1ccc2c(c1)CN(CC1CC1)CC1(CCN(Cc3c[nH]c4cnccc34)CC1)O2 | < 70%
17 | CCCCN1C(=O)C(=O)N(CC(=O)Nc2sc(Cc3ccc4c(c3)OCO4)c(C)c2C(=O)OCC)C1=O | < 70%
18 | COc1ccc([N+](=O)[O-])cc1C(=O)Nc1nc2c(s1)CCCCC2 | < 70%
19 | Cc1ccc(Cn2c(N3CCC(C(=O)NCc4cccs4)CC3)nc3ccccc32)cc1 | < 70%
20 | Cc1ccc(-c2cc(C(=O)Nc3ccc(S(=O)(=O)N4CCCCC4)cc3)[nH]n2)c(O)c1 | < 70%
21 | COc1ccc2cc(CNc3ncnc4n[nH]cc34)ccc2c1 | < 70%
22 | CC(=O)N1CCN(c2ccc(Oc3ccc(Cl)cc3O)cc2)CC1 | < 70%
23 | CCN1CCN(c2c(C(=O)c3ccccc3)cnc3cc(OC)c(OC)cc23)CC1 | < 70%
24 | Cc1ccc(-c2noc(CN3CCN(c4cc(C)nc(N)n4)CC3)n2)cc1 | < 70%

Row | Compound | growth inhibition at single dose
25 | CC(C)NS(=O)(=O)c1cccc(CNc2ncnc3ccccc23)c1 | < 70%
26 | COc1ccc(CN2CCOc3ccc(C(C)(O)CN(C)C)cc3C2)cc1C (stereo unspecified) | < 70%
27 | c1ccc2c(NCCc3c[nH]c4ccccc34)c3ccccc3nc2c1 | < 70%
28 | COC(=O)c1c(NC(=O)c2cc3ccccc3oc2=O)sc2c1CCN(Cc1ccccc1)C2 | < 70%
29 | COc1cc(C(F)(F)F)nc2ccc(C)c(N)c12 | < 70%
30 | CCOc1cccc(C2Nc3ccccc3C(=O)N2C2CC2)c1O (stereo unspecified) | < 70%
31 | COc1cc(Br)cc2cc(C(=O)Nc3cccc(C(F)(F)F)c3)c(=O)oc12 | < 70%
32 | CC1CCCCN1CCCNC(=O)c1ccc2c(c1)sc1nc(-c3ccc(F)cc3)cn12 (stereo unspecified) | < 70%
33 | CCN(CC)C(=O)N1CCN(C)CC1 [Diethylcarbamazine] | < 70%
34 | Cn1c(C(=O)c2cccc3ccccc23)nc2ccccc21 | < 70%
35 | COc1cccc(O)c1CN1CCC2(CCCN(Cc3ccc(F)cc3)C2)C1 (stereo unspecified) | < 70%
36 | O=C(Nc1ccccc1)c1ccc(CN2CCN(CCOc3ccccc3)CC2)cc1 | < 70%
37 | CC(C)c1ccc(C2C3CCc4ccccc4C3=NN2C)cc1 (stereo unspecified) | < 70%
38 | C=CCn1c(C)cc(C(=O)COC(=O)C(O)(c2ccccc2)c2ccccc2)c1C | < 70%
39 | COc1cccc(Nc2nc(NCCO)c3ccccc3n2)c1 | < 70%
40 | c1ccc2cc3c(Nc4ccc(N5CCOCC5)cc4)ccnc3cc2c1 | < 70%
41 | CC(C(=O)Nc1ccc2oc(-c3ccncc3)nc2c1)c1ccccc1 (stereo unspecified) | < 70%
42 | CC(C)OCc1cc(CN2CCN(c3cccc(Cl)c3)CC2)c(O)c2ncccc12 | < 70%
43 | CC(=O)c1c(C)[nH]c(C(=O)OCCOc2ccccc2)c1C | < 70%
44 | O=C(NCc1ccco1)C1CCN(S(=O)(=O)c2ccc(Cl)cc2)CC1 | < 70%
45 | Cc1cc(C(=O)Nc2ccc(-c3ccccc3)cc2)no1 | < 70%
46 | Cc1ccc(-c2cc3c(nn2)-c2ccccc2C3=O)cc1 | < 70%
47 | O=C(NC1CC1)c1ccc(CSCc2ccccc2Cl)o1 | < 70%
48 | COc1ccc(OC)c(C(C)Nc2ncnc3sccc23)c1 (stereo unspecified) | < 70%

Row | Compound | growth inhibition at single dose
49 | Cc1c(-c2ccccc2)sc2[nH]c(CC(N)=O)nc(=O)c12 | < 70%
50 | CCOC(=O)c1cnc2c(C)cccc2c1Nc1ccc(C(C)=O)cc1 | < 70%
51 | CC(C)c1nc(N2CCN(CC(=O)N3CCCC3)CC2)c(C#N)c2c1CCC2 | < 70%
52 | CC1CN(C(=O)c2sc3ccccc3c2Cl)CC(C)O1 (stereo unspecified) | < 70%
53 | FC(F)(F)c1cccc(CNc2ncnc3sccc23)c1 | < 70%
54 | Cc1cc(C)n2nc(C(=O)Nc3cc(C(F)(F)F)ccc3N3CCOCC3)nc2n1 | < 70%
55 | CCc1cc(=O)n(C)c(SC(C)C(=O)Nc2ccc(F)cc2)n1 (stereo unspecified) | < 70%
56 | O=C(Nc1nnc(-c2ccc(Cl)s2)o1)c1ccc(Cl)s1 | < 70%
57 | C/N=c1\scc(-c2ccc(OC(F)F)cc2)n1/N=C/c1ccccc1Br | < 70%
58 | CCC(Sc1nc2ccccc2o1)C(=O)Nc1nccs1 (stereo unspecified) | < 70%
59 | CC(C)(C)c1ccc(NC(=O)c2cnccn2)cc1 | < 70%
60 | O=C(Nc1nc(CN2CCOCC2)cs1)c1ccc(-c2ccccc2)cc1 | < 70%
61 | CC1CCCN(C(=O)C(C)Nc2cc(Cl)ccc2N2CCOCC2)C1 (stereo unspecified) | < 70%
62 | CN(C)CCNc1cc(-c2ccccc2)nc2ccccc12 | < 70%
63 | COc1ccc2nc(C)cc(Nc3ccccc3O)c2c1 | < 70%
64 | Clc1ccc(CN2CCN(C3=NCCN3)CC2)cc1Cl | < 70%
65 | Cc1cc(NC(=O)c2ccc(-c3ccccc3)cc2)no1 | < 70%
66 | O=C(CSc1nccn2nc(-c3ccccc3)cc12)Nc1cc(C(F)(F)F)ccc1Cl | < 70%
67 | O=C(Nc1ncccc1O)c1ccc(S(=O)(=O)NCc2ccco2)cc1 | < 70%
68 | CCc1ccc(S(=O)(=O)Nc2cc(CN3CCN(CCC(C)C)CC3)ccc2C)cc1 | < 70%
69 | CC(C)c1nc2cc(NC(=O)CSc3nnnn3C3CC3)ccc2o1 | < 70%
70 | Cc1cc(NC(=O)C(C)(C)C)sc1C(=O)Nc1ccccc1O | < 70%
71 | CCCc1cc(O)c2c3c(c(=O)oc2c1)CN(C)CC3 | < 70%
